Laboratory results reported in patent publication US10428013B2, “Amide compound, preparation method and uses thereof” (Shanghai Institute of Phamaceutical Industry, priority 2011, dated 2019).

Experiments:
[1] = tested on: Hyperlipemia Model of SD Rat; test: Screening in the hyperlipemia model of SD rat (fat emulsion by gavage; serum lipids); format: in vivo; settings: hyperlipemia SD rats, dosed 21 days, X ± SD
Method: Materials and Methods for Screening with the Compounds Prepared in Experiment 1 to 21 in the Hyperlipemia Model of SD Rat
SD rats, male, 150-180 g, supplied by Shanghai Slaccas Laboratory Animal Company Limited.
Preparation of fat emulsion: 500 g lard oil was weighed and placed into a vessel, heated for melting, and upon heating up to the temperature of 100° C., 200 g cholesterol was added and fully dissolved, then 20 g propylthiouracil was added. After full stirring and dissolving, 500 ml Tween 80 was added to give an oil phase. Meanwhile, 600 ml distilled water and 400 ml 1,2-propylene glycol were heated to 60° C. in water bath, and then 40 g sodium deoxycholate was added with stirring, until full dissolution, to give an aqueous phase. The aqueous phase was added into the oil phase and fully and uniformly mixed, to prepare the fat emulsion.
Formulation of the solution for the compounds: an appropriate amount of compounds was triturated with appropriate amount of Tween 80 for homogeneous dispersion, and then sufficient CMC-Na solution was added and fully triturated, suspended to give the solution for the compounds.
The animals were fed for acclimation for 3 days, with 8 animals as blank control (Control) according to weight, and the rest was subject to intragastric administration of fat emulsion at 1 ml/100 g weight at A.M. 9:00-11:00 daily for continuous 2 weeks; the animals were fasted for 12 hours, and had 1 ml blood sampled at orbital cavity, which was measured with the Hitachi Automatic Biochemical Analyzer 7080 for serum cholesterol (CHO), triglyceride (TO), low-density lipoprotein (LDL-C) and high-density lipoprotein (HDL-C), with the animals having CHO of 4-7 mmol/L for experiment.
The animals dosed with fat emulsion for 2 weeks were divided into model group (Model), simvastatin group (Sim, 10 mg/kg) and compound group (40 mg/kg) according to weight, and continued to receive intragastric administration with fat emulsion; at the same time, the dosed group was administered with respective amount of drug, and the model group was administered with equal volume of solvent. Fat emulsion was dosed by gavage at A.M., and drug was dosed at P.M. The animals were weighed at Monday, and were observed. The animals were dosed for continuous 21 days, and fasted for 12 hours, with 1 ml blood sampling at orbital cavity. The liver was exposed and observed for pathologic condition; after slicing and weighing, it was fixed into the 4% formaldehyde solution for pathologic examination.
The Hitachi Automatic Biochemical Analyzer 7080 was used to measure serum cholesterol (CHO), triglyceride (TG), low-density lipoprotein (LDL-C) and high-density lipoprotein (HDL-C).
Laboratory data were expressed as X±SD (Standard Deviation), and comparison between groups was carried out by t-testing.

[2] = tested on: Cholelithiasis Model of Golden Hamster; test: Screening in the cholelithiasis model of golden hamster (biochemical measurement of bile); format: in vivo, golden hamsters; settings: dosed 45 days, X ± SD
Method: Screening with the Compounds Prepared in Experiment 1 to 21 in the Cholelithiasis Model of Golden Hamster
68 male golden hamsters, 50-60 g, supplied by Shanghai Slaccas Laboratory Animal Company Limited.
The animals were fed for acclimation for 3 days, with 8 animals as blank control (Control) according to weight. The control was dosed with normal rat feedstuff, and the rest was dosed with feedstuff leading to cholelithiasis (sucrose 32.1%, cheese 64.2%, cholesterol 0.2%, salt 3%, vitamin B1 […], concentrated fish liver oil 0.4%). The animals were fed for acclimation for another 7 days, and divided into model group (Model), simvastatin group (Sim, 10 mg/kg), Ursodesoxycholic acid group (UDCA, 40 mg/kg), and compound group, n=6/group.
[…] 2:00-3:00 daily. The animals were weighed at Monday, and observed for hair color, stool, and variation of activation level.
The animals were dosed for continuous 45 days and then fasted for 12 hours; were anesthetized with 30 mg/kg sodium secobarbital via intraperitoneal injection; had 1 ml blood sampled via abdominal aorta; had gallbladder exposed, with an orifice on the gallbladder being clamped by the ophthalmological pliers and bile in the gallbladder being sucked with 1 ml syringe.
The Hitachi Automatic Biochemical Analyzer 7080 was used to measure cholesterol (CHO), total total bilirubin (TBIL), total bile acid (TBA) and total protein (TP) in bile.
Laboratory data was expressed as X±SD, and comparison of measurement data between groups was carried out by t-testing, with non-parametric testing for enumeration data.

[3] = tested on: Mice; test: Testing for acute toxicity in mice; format: in vivo; settings: orally by gavage, 5 g/kg, observation 14 days
Method: Testing for Acute Toxicity in Mice
The compounds was dissolved into an appropriate amount of Tween-80, and suspended and dispersed uniformly into a given amount of CMC-Na solution, which was administered orally and by gavage at a dose of 5 g/kg, with no toxicity associated with administration being observed, and no death of animals occurred during observation of continuous 14 days. From the results, the sample Compound 01, Compound 02, Compound 03, Compound 04, Compound 05, Compound 06, Compound 07, Compound 08, Compound 09, Compound 10, Compound 11, Compound 12, Compound 13, Compound 14, Compound 15, Compound 16, Compound 17, Compound 18, Compound 19, Compound 20 and Compound 21 were safe.

| SMILES | CHO1 Concentration (serum cholesterol) ([1]; 40 mg/kg) [mmol/L] | HDL-C Concentration (serum high-density lipoprotein) ([1]; 40 mg/kg) [mmol/L] | LDL-C Concentration (serum low-density lipoprotein) ([1]; 40 mg/kg) [mmol/L] | TG Concentration (serum triglyceride) ([1]; 40 mg/kg) [mmol/L] | Cholesterol (CHO) in bile ([2]; 20 mg/kg) [mmol/L] | Total bile acid (TBA) in bile ([2]; 20 mg/kg) [mmol/L] | Total protein (TP) in bile ([2]; 20 mg/kg) [g/L] | Total total bilirubin (TBIL) in bile ([2]; 20 mg/kg) | Acute toxicity, overall result [3] | CHO1 Concentration (serum cholesterol) ([1]; 10 mg/kg) [mmol/L] | HDL-C Concentration (serum high-density lipoprotein) ([1]; 10 mg/kg) [mmol/L] | LDL-C Concentration (serum low-density lipoprotein) ([1]; 10 mg/kg) [mmol/L] | TG Concentration (serum triglyceride) ([1]; 10 mg/kg) [mmol/L] | Cholesterol (CHO) in bile ([2]; 10 mg/kg) [mmol/L] | Total bile acid (TBA) in bile ([2]; 10 mg/kg) [mmol/L] | Total protein (TP) in bile ([2]; 10 mg/kg) [g/L] | Total total bilirubin (TBIL) in bile ([2]; 10 mg/kg) [µmol/L] |
| --- | --- | --- | --- | --- | --- | --- | --- | --- | --- | --- | --- | --- | --- | --- | --- | --- | --- |
| CC(Oc1ccc(Cl)cc1)(C(=O)NCC(=O)c1ccc(O)cc1)C1CC1 (stereo not drawn) [Compound 20] | 19.88 ± 0.84 | 2.63 ± 0.57 | 18.48 ± 0.43 | 1.72 ± 0.26 | 0.92 ± 0.66 | 16.80 ± 9.62 | 32.94 ± 19.18 | 75.92 ± .072 µmol/L |  |  |  |  |  |  |  |  |  |
| Cc1ccc(C)c(OCCCC(C)(C)C(=O)NCC(=O)c2ccc(CO)cc2)c1 [Compound 21] | 14.42 ± 2.75 | 1.69 ± 0.26 | 12.15 ± 3.12 | 2.00 ± 0.52 |  |  |  |  | safe |  |  |  |  |  |  |  |  |
| CCC(C)(C)C(=O)O[C@H]1C[C@@H](C)C=C2C=C[C@H](C)[C@H](CC[C@@H]3C[C@@H](O)CC(=O)O3)[C@H]21 [Simvastatin, reference compound] |  |  |  |  |  |  |  |  |  | 12.52 ± 1.34 | 1.52 ± 0.32 | 11.92 ± 1.44 | 1.41 ± 0.16 | 1.07 ± 0.63 | 7.68 ± 3.31 | 35.52 ± 18.04 | 79.2 ± 34.2 |
